# From patent US4752614A, “Pharmaceutical compositions of tellerium and selenium compounds for the induction of in vivo and in vitro production of cytokines” (Bar-Ilan University, priority 1987, dated 1988)
# Where “and” joins values, the source holds several entries; their conditions need not be identical. Equal values may be shown once.
# How the values were obtained:
# IL-2 [1] = assay: Oral administration in powdered sucrose, IL-2 content (Example 13); format: in vivo, mice; details: for IL-2 content: oral, 24 hours
# Protocol: The compound of Example 1 was thoroughly mixed with powdered sucrose and 10 μg of the compound of example 1 in 25 mg of powdered sucrose was placed in the mouth of each mouse.
# After 24 hours the mice were sacrificed and the spleens were processed as described above.
# IL-2 [2] = assay: IL-2 activity of supernatants of human mononuclear cells on CTLD cells (Example 8); format: cell-based; details: 72 hours
# IL-2 [3] = assay: IL-2 activity (CTLD proliferation) of Con A supernatants of spleen cells from mice injected IP (Example 3); format: in vivo, Balb-c mice
# Protocol: A solution of the compound of Example 1 was prepared as follows: 5 mg was placed in a volumetric flask to which was added 100 ml of a solution of 40% dimethyl sulfoxide (DMSO) and 60% phosphate buffer saline (PBS) solution resulting in a concentration of 10 μg/0.2 ml. If the solution becomes turbid, it is centrifuged at 2000 rpm for ten minutes and the clear supernatant portion is used.
# The test animals were Balb-c, male, mice, 6 to 8 weeks of age. All injections were made intraperitoneally using 0.2 ml of the solution of the compound of Example 1 using 25 gauge 5/8" hypodermic needle.
# The animals received the following injections:
# Each of groups a, b, c and d consisted of 21 animals. The animals were sacrificed daily from 24 h to 7 days after injection.
# On each day, spleen cells from three of the animals from each control group were pooled together and processed by passing the spleen cells through a 60 mesh stainless steel net in a 5 mm Petri dish containing PBS in order to separate the cells. The cells were collected and centrifuged at 1000 rpm for 10 minutes. The supernatant was discarded and the cells were treated for two minutes with 5 ml of hypotonic buffer (0.15M NH4 Cl, 0.01M KHCO3 dissolved in double distilled water, pH 7.2) to kill the erythrocytes. Thereafter, PBS was added to the cells and the cells were centrifuged for 10 minutes at 1000 rpm. The cells were washed twice with PBS and counted in a haemocytometer using trypan blue to test for viability. The cells were brought to a concentration of 10^7 cells/ml using enriched RPMI containing 10% fetal calf serum (Ser Lab, Sussex, England); 5×10^-5 M 2-mercaptoethanol and 3% of d-glutamine (Bio Lab Israel) (stock solution 2m M×1000 nonessential amino acids) (Bio Lab, Israel) (stock solution×100) and sodium pyruvate (Bio Lab, Israel) (stock solution 1m M×100).
# An additional three animals from each of the experimental groups were sacrificed and each of the spleens was processed separately using the same procedure.
# The cell mixture was divided into two groups.
# (a) Cells at a concentration of 10^7 cells/ml enriched RPMI to which was added concanavalin-A (CON A) (DiFCO, Batch 352) 2 μg./ml. These cells were incubated in 5 mm Petri dishes (NUNC) for 24 hours at 37° C., 7.5% CO2. Supernatants were collected, centrifuged at 1,600 rpm for 10 minutes and stored at 4° C. until used. These supernatants were assayed for IL-2 and CSF activity.
# Prior to incubation of the cells, samples were removed from culture plates and smears of the cultures were made by cytocentrifugation. Slides were stained with May-Grunwald-Giemsa (1:10) solution and evaluated morphologically. A radioactive thymidine assay was used to determine IL-2 activity.
# 1. Supernatants were tested for IL-2 activity by the proliferation of the IL-2 dependent cell line CTLD. The IL-2 assay is based on the growth dependence of these cultured T-cell lines on IL-2. T cells harvested from IL-2 dependent culture, washed and placed back in culture in the absence of IL-2 invariably die within 24 hr. By using tritiated thymidine incorporation (^3 H-TdR) as an index of cultured T-cell replication, the IL-2 microassay provides a highly reproducible and quantitive indication of the amount of IL-2 activity in the supernatant prepared hereinabove.
# 2. To assay a condition medium for IL-2 activity, a sample containing 5×10^4 CTLD cells, 10% fetal calf serum and 50% of supernatant in question, all were suspended in a final volume of 1 ml RPMI. Aliquots of 0.2 ml from each sample were placed in four replicate wells of 96 microwell tissue culture plates (NUNC). Conditioned medium was obtained from cultures of Charles River rat spleen cells stimulated with Con A that contained a known amount of IL-2 as a reference in all assays.
# 3. The microwells were incubated for 24 hr at 37 degrees C. after which 1 microcurie/well of ^3 H-methylthymidine was added. […]
# human mononuclear cells = assay: Proliferation of human mononuclear cells (Example 19); format: cell-based
# Protocol: Human mononuclear cells were obtained by layering heparinized blood over a Ficoll/Hypaque gradient. The mononuclear cells were resuspended in enriched RPMI, rinsed three times and brought to a concentrations of 5×10^5 cells/ml encriched RPMI. […] Aliquots of 0.2 ml of each sample were placed in wells of microplates (triplicates). Microplates were incubated for 72 hours at 37° C. after which they were labelled with H^3 methyl-thymidine 1 μCi/well for an additional 24 hours. Cells were then harvested with a cell harvester.
structure (smiles),measurement,setting,value
Cl[TeH]1(Cl)(Cl)OCCO1 [Example 1],IL-2 content,"IL-2 [1]; Test 1, 10 μg in 25 mg sucrose","250,175 cpm and 166,475 cpm"
same,IL-2 content,"IL-2 [1]; Test 2, 10 μg in 25 mg sucrose","55,382 cpm and 41,938 cpm and 29,172 cpm"
same,induction of lymphokine production,IL-2 [1]; given in dry form or hydrolyzed in an aqueous diluent,active
same,IL-2 activity,IL-2 [2]; 1 ng,"11,000 Counts per minute"
same,IL-2 activity,IL-2 [2]; 10 ng,"1,500 Counts per minute"
same,IL-2 activity,IL-2 [2]; 1 μg,250 Counts per minute
same,IL-2 activity,IL-2 [2]; 100 μg,280 Counts per minute
same,IL-2 activity,"IL-2 [3]; 1 μg IP, day 1, individual mouse","25,919 CPM and 34,326 CPM and 16,718 CPM"
same,IL-2 activity,"IL-2 [3]; 1 μg IP, day 2, individual mouse","21,398 CPM and 22,050 CPM and 9,338 CPM"
same,IL-2 activity,"IL-2 [3]; 1 μg IP, day 3, individual mouse","10,130 CPM and 13,235 CPM and 2,176 CPM"
same,IL-2 activity,"IL-2 [3]; 1 μg IP, day 4, individual mouse","31,999 CPM and 14,226 CPM and 17,228 CPM"
same,IL-2 activity,"IL-2 [3]; 1 μg IP, day 6, individual mouse","41,261 CPM and 80,314 CPM and 42,485 CPM"
same,IL-2 activity,"IL-2 [3]; 1 μg IP, day 7, individual mouse","66,854 CPM and 58,094 CPM and 51,268 CPM"
same,IL-2 activity,"IL-2 [3]; 10 μg IP, day 1, individual mouse","24,335 CPM and 21,193 CPM and 25,381 CPM"
same,IL-2 activity,"IL-2 [3]; 10 μg IP, day 2, individual mouse","31,901 CPM and 36,390 CPM and 22,066 CPM"
same,IL-2 activity,"IL-2 [3]; 10 μg IP, day 3, individual mouse","20,316 CPM and 18,288 CPM and 12,126 CPM"
same,IL-2 activity,"IL-2 [3]; 10 μg IP, day 4, individual mouse","26,644 CPM and 18,051 CPM and 65,963 CPM"
same,IL-2 activity,"IL-2 [3]; 10 μg IP, day 6, individual mouse","22,040 CPM and 74,043 CPM and 43,838 CPM"
same,IL-2 activity,"IL-2 [3]; 10 μg IP, day 7, individual mouse","85,216 CPM and 6,299 CPM"
same,proliferation of human mononuclear cells,"human mononuclear cells; first part of table, 1 × 10^-3 μg/ml",2553 and 2180
same,proliferation of human mononuclear cells,"human mononuclear cells; first part of table, 1 × 10^-4 μg/ml",3838 and 2387
same,proliferation of human mononuclear cells,"human mononuclear cells; first part of table, 1 × 10^-5 μg/ml",3218 and 2442
same,proliferation of human mononuclear cells,"human mononuclear cells; first part of table, 5 × 10^-1 μg/ml",18515 and 33700
same,proliferation of human mononuclear cells,"human mononuclear cells; second part of table, 1 μg/ml",6000 and 5600
same,proliferation of human mononuclear cells,"human mononuclear cells; second part of table, 5 μg/ml",5008 and 5182
same,proliferation of human mononuclear cells,"human mononuclear cells; second part of table, 1 × 10^-1 μg/ml",7037 and 10382
same,proliferation of human mononuclear cells,"human mononuclear cells; second part of table, 1 × 10^-2 μg/ml",6898 and 5712
same,proliferation of human mononuclear cells,"human mononuclear cells; second part of table, 1 × 10^-3 μg/ml",5800 and 6000
same,proliferation of human mononuclear cells,"human mononuclear cells; second part of table, 1 × 10^-4 μg/ml",5513 and 6212
same,proliferation of human mononuclear cells,"human mononuclear cells; second part of table, 5 × 10^-1 μg/ml",20488 and 13600
same,proliferation of human mononuclear cells,"human mononuclear cells; second part of table, 5 × 10^-2 μg/ml",5520 and 5765
